Results on six compounds are retold here after patent US11981658B2, “Substituted aminopyridine compounds as EGFR inhibitors” (YUHAN CORPORATION, priority 2021, dated 2024).

Structures can show the parent of a compound that is named as a salt. Where two headings read alike, the source gives them in different places.

One assay deals with EGFR Del19/C797S (Homo sapiens, UniProt P00533, C797S/DEL746-750). The experiment in a line: Biochemical EGFR kinase inhibition assay (Lance Ultra TR-FRET), double mutant del19/C797S. The essentials:
(§1)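 Step 1: compound in kinase buffer, 0.003–10 μM. Step 2: kinase reaction 1 h at room temperature. Step 4: TR-FRET read at 615/665 nm; IC50 calculated.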
(In general: In TR-FRET formats the signal depends on donor and acceptor labels being close together.)

The target of the next assay is EGFR L858R/C797S (Homo sapiens, UniProt P00533, C797S/L858R). The assay can be described thus: Biochemical EGFR kinase inhibition assay (Lance Ultra TR-FRET), double mutant L858R/C797S. A digest of the protocol: as §1
EGFR L858R/C797S, sequence (P00533 25-1210 C797S/L858R): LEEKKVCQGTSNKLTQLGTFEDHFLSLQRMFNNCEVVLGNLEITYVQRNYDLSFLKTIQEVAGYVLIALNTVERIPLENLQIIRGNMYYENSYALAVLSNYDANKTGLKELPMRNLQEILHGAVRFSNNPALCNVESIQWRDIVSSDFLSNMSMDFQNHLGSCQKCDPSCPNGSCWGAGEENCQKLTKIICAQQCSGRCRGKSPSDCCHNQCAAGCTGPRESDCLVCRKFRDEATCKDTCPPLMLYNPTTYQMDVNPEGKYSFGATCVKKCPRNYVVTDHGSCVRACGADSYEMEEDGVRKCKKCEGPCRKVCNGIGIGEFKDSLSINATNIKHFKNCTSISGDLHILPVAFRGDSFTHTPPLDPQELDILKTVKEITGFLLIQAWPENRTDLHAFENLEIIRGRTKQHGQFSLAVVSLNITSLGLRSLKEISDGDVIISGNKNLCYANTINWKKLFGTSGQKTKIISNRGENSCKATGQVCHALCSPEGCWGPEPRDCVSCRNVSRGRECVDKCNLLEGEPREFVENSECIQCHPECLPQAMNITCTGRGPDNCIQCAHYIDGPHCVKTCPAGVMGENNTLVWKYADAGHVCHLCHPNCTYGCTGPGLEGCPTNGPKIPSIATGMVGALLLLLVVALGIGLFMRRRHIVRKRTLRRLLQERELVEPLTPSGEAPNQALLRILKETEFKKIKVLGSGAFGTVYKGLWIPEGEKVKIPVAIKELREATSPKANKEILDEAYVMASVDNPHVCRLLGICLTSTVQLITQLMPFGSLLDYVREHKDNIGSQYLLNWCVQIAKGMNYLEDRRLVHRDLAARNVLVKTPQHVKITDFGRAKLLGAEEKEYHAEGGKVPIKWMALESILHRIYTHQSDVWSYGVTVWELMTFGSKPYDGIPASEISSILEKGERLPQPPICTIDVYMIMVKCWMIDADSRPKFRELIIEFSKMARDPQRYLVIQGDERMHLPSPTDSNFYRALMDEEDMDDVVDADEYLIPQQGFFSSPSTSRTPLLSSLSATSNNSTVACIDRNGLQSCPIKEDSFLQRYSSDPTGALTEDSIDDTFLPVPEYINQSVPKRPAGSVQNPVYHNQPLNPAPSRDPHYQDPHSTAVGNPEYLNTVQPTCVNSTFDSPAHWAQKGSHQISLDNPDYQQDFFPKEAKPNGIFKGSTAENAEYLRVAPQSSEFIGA
Another assay has as its target EGFR L858R/T790M/C797S (Homo sapiens, UniProt P00533, C797S/L858R/T790M). The assay can be described thus: Biochemical EGFR kinase inhibition assay (Lance Ultra TR-FRET), triple mutant L858R/T790M/C797S. A digest of the protocol:
as §1

In the next assay the target is EGFR wildtype (WT) (Homo sapiens, UniProt P00533). The experiment in a line: Biochemical EGFR kinase inhibition assay (Lance Ultra TR-FRET), wildtype. The essentials:
as §1

In a further assay the target is EGFR Del19/T790M/C797S (Homo sapiens, UniProt P00533, C797S/DEL746-750/T790M). The experiment in a line: Biochemical EGFR kinase inhibition assay (Lance Ultra TR-FRET), triple mutant del19/T790M/C797S. A digest of the protocol: as §1
EGFR Del19/T790M/C797S, sequence (P00533 with tags, fused parts or gaps DEL746-750/T790M/C797S): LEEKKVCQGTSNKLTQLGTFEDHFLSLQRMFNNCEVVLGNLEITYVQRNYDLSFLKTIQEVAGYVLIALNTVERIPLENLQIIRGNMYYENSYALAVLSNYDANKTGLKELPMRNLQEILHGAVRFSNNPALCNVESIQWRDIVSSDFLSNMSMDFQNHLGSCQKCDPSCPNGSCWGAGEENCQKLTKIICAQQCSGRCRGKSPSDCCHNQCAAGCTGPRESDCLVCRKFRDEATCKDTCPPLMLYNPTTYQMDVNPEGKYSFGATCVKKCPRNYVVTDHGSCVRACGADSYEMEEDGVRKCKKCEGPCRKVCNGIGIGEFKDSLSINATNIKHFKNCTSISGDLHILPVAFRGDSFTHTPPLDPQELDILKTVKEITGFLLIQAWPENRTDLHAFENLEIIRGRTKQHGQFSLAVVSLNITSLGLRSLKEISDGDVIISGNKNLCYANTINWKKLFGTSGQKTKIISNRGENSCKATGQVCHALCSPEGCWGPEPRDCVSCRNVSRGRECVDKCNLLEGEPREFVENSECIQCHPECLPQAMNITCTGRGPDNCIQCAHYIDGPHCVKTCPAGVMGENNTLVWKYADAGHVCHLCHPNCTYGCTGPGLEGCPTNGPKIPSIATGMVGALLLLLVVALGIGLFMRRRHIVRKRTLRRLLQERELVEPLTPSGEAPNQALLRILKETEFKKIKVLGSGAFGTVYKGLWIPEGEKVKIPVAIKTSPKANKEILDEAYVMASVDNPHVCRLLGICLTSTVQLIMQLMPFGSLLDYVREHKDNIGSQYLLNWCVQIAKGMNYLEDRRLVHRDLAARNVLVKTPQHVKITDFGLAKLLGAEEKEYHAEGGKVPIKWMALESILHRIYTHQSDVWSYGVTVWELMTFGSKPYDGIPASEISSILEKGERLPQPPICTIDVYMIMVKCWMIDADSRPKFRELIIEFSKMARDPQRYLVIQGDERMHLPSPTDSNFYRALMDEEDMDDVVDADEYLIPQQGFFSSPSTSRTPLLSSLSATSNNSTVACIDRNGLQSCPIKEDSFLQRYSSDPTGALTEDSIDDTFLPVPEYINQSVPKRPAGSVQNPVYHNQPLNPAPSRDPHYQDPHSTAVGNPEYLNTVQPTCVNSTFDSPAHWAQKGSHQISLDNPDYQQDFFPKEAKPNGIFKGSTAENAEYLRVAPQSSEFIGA
The mark [1] stands for this setting: IC50 Del19/C797S (nM), 100 μM ATP.
Setting [2] is: IC50 L858R/C797S (nM), 100 μM ATP.
Where [3] appears, read: IC50 L858R/T790M/C797S (nM), 100 μM ATP.
Where [4] appears, read: IC50 Del19/T790M/C797S (nM), 100 μM ATP.
[5] abbreviates: ATP at Km, read-out: IC50 Del19/C797S (nM), Km ATP.
Where [6] appears, read: ATP at Km, read-out: IC50 L858R/C797S (nM), Km ATP.
Where [7] appears, read: ATP at Km, read-out: IC50 L858R/T790M/C797S (nM), Km ATP.
Where [8] appears, read: ATP at Km, read-out: IC50 WT (nM), Km ATP.
[9] abbreviates: ATP at Km, read-out: IC50 Del19/T790M/C797S (nM), Km ATP.

EGFR wildtype (WT), sequence (P00533 25-1210): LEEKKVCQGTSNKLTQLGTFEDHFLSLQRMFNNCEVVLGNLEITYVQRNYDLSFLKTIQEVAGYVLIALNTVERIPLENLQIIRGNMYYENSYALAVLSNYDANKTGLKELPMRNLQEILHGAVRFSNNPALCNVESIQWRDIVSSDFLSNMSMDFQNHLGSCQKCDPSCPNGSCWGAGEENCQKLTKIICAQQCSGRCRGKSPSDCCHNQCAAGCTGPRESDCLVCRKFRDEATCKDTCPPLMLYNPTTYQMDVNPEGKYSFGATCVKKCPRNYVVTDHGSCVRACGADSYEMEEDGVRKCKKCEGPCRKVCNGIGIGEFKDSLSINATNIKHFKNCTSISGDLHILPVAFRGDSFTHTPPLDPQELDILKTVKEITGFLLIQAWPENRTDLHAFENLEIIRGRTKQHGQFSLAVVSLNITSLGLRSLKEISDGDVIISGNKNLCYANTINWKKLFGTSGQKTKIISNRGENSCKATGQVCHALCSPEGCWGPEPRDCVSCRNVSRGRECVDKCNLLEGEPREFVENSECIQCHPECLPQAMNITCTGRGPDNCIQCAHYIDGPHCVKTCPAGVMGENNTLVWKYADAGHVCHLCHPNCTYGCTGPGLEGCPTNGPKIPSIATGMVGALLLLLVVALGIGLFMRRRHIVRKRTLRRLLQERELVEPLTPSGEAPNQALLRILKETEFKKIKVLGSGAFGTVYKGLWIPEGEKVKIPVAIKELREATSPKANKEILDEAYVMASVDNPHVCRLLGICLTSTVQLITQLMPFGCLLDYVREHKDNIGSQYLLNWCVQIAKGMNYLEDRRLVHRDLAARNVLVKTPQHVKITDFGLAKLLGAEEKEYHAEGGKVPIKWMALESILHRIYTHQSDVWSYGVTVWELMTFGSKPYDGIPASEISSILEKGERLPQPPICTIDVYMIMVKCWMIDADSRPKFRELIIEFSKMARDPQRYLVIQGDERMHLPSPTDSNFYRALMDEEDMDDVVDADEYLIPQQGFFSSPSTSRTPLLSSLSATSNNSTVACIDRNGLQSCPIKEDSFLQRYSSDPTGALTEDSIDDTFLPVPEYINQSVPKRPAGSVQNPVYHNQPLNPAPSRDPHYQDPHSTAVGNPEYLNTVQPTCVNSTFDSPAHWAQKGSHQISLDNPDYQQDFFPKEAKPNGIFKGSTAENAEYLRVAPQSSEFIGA
EGFR Del19/C797S, sequence (P00533 with tags, fused parts or gaps DEL746-750/C797S): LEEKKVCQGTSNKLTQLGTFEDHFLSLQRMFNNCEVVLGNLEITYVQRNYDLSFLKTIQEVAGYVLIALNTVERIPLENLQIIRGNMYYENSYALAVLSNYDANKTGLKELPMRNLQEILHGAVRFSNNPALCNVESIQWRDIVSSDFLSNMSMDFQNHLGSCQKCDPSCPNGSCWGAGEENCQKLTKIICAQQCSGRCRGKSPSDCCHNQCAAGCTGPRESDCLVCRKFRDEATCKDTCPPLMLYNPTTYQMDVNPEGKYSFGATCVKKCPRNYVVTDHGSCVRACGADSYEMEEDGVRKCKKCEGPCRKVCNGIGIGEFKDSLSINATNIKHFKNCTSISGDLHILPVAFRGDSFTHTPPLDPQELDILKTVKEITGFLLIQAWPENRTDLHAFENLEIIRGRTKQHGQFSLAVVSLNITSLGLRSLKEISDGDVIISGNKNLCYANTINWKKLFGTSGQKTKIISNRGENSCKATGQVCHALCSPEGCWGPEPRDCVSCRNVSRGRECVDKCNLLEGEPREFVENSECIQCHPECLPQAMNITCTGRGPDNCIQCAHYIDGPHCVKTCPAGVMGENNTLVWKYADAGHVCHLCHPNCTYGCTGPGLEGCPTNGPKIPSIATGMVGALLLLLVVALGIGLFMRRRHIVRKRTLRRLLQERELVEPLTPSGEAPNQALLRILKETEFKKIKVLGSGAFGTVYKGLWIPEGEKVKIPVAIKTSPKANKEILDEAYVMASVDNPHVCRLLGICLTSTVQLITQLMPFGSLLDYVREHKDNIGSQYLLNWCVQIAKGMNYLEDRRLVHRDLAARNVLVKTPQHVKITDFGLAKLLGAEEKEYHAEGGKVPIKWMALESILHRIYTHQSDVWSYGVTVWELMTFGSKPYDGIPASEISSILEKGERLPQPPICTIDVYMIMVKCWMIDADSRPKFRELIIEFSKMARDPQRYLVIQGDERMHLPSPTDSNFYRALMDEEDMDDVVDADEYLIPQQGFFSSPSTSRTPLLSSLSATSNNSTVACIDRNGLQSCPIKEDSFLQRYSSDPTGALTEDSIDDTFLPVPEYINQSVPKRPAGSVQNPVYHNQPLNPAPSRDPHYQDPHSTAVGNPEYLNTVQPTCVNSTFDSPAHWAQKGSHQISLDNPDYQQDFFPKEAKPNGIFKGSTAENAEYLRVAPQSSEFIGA

Take `CN1CCN(Cc2ccc(C#Cc3cnc(Nc4ccnc(-c5cnn(S(=O)(=O)C6CC6)c5)n4)cc3N3CCC(C)(O)CC3)cc2)CC1` [Example 368, 1-(2-((2-(1-(Cyclopropylsulfonyl)-1H-pyrazol-4-yl)pyrimidin-4-yl)amino)-5-((4-((4-methylpiperazin-1-yl)methyl)phenyl)ethynyl)pyridin-4-yl)-4-methylpiperidin-4-ol]: the IC50 was found to be 0.7 nM on EGFR Del19/C797S (setting [1]); 0.6 nM at EGFR Del19/C797S (Km ATP, read-out: IC50 Del19/C797S (nM), Km ATP); 1.4 nM at EGFR L858R/C797S (setting [2]); 0.7 nM on EGFR L858R/C797S (Km ATP, read-out: IC50 L858R/C797S (nM), Km ATP); 0.2 nM on EGFR L858R/T790M/C797S (setting [3]); 0.1 nM on EGFR L858R/T790M/C797S (Km ATP, read-out: IC50 L858R/T790M/C797S (nM), Km ATP). Besides, the IC50 against EGFR wildtype (WT) (IC50 WT (nM), 100 μM ATP) came to 197 nM; on EGFR wildtype (WT) (Km ATP, read-out: IC50 WT (nM), Km ATP), 0.8 nM; at EGFR Del19/T790M/C797S (setting [4]), 0.4 nM; on EGFR Del19/T790M/C797S (Km ATP, read-out: IC50 Del19/T790M/C797S (nM), Km ATP), 0.4 nM.

On to `CC1(C#Cc2cnc(Nc3ccnc(-c4cnn(S(=O)(=O)C5CC5)c4)n3)cc2NC[C@H]2CC[C@H](O)CC2)CC1` [Example 403, (1r,4r)-4-(((2-((2-(1-(Cyclopropylsulfonyl)-1H-pyrazol-4-yl)pyrimidin-4-yl)amino)-5-((1-methylcyclopropyl)ethynyl)pyridin-4-yl)amino)methyl)cyclohexan-1-ol], for which the IC50 against EGFR Del19/C797S (setting [1]) is 140 nM; against EGFR L858R/C797S (setting [2]), 1920 nM; at EGFR L858R/T790M/C797S (setting [3]) it was 50.3 nM; against EGFR wildtype (WT) (IC50 WT (nM), 100 μM ATP) it was more than 10000 nM; against EGFR Del19/T790M/C797S (setting [4]), 16.2 nM.

On to `O=S(=O)(C1CC1)n1cc(-c2nccc(Nc3cc(N[C@H]4CC[C@@H](O)CC4)c(C#Cc4ccc(CN5CCOCC5)s4)cn3)n2)cn1` [Example 190, (1s,4s)-4-((2-((2-(1-(Cyclopropylsulfonyl)-1H-pyrazol-4-yl)pyrimidin-4-yl)amino)-5-((5-(morpholinomethyl)thiophen-2-yl)ethynyl)pyridin-4-yl)amino)cyclohexan-1-ol], for which the IC50 was 3.3 nM at EGFR Del19/C797S (setting [5]); 4.6 nM against EGFR Del19/C797S (setting [1]); 8.9 nM on EGFR L858R/C797S (setting [6]); 71.5 nM at EGFR L858R/C797S (setting [2]); 1 nM at EGFR L858R/T790M/C797S (setting [7]); 6.7 nM against EGFR L858R/T790M/C797S (setting [3]). The IC50 is 19.7 nM on EGFR wildtype (WT) (setting [8]); more than 10000 nM at EGFR wildtype (WT) (IC50 WT (nM), 100 μM ATP); 1.8 nM at EGFR Del19/T790M/C797S (setting [9]); 5.1 nM at EGFR Del19/T790M/C797S (setting [4]).

Turning to `Cn1cc(C#Cc2cnc(Nc3ccnc(-c4cnn(S(=O)(=O)C5CC5)c4)n3)cc2N2CCC(O)C(C)(C)C2)cn1` (stereo not drawn) [Example 69, 1-(2-((2-(1-(Cyclopropylsulfonyl)-1H-pyrazol-4-yl)pyrimidin-4-yl)amino)-5-((1-methyl-1H-pyrazol-4-yl)ethynyl)pyridin-4-yl)-3,3-dimethylpiperidin-4-ol], the IC50 at EGFR Del19/C797S (setting [1]) is 43.8 nM; against EGFR L858R/C797S (setting [2]), 179 nM; at EGFR L858R/T790M/C797S (setting [3]), 13.2 nM; at EGFR wildtype (WT) (IC50 WT (nM), 100 μM ATP), more than 10000 nM; against EGFR Del19/T790M/C797S (setting [4]), 1.7 nM.

Consider `Cn1cc(C#Cc2cnc(Nc3ccnc(-c4cnn(S(=O)(=O)C5CC5)c4)n3)cc2N2CCCC(CF)C2)cn1` (stereo not drawn) [Example 72, 2-(1-(Cyclopropylsulfonyl)-1H-pyrazol-4-yl)-N-(4-(3-(fluoromethyl)piperidin-1-yl)-5-((1-methyl-1H-pyrazol-4-yl)ethynyl)pyridin-2-yl)pyrimidin-4-amine], for which the IC50 against EGFR Del19/C797S (setting [1]) was 50.3 nM; at EGFR L858R/C797S (setting [2]), 170 nM; against EGFR L858R/T790M/C797S (setting [3]), 16.9 nM; against EGFR wildtype (WT) (IC50 WT (nM), 100 μM ATP) it was more than 10000 nM; on EGFR Del19/T790M/C797S (setting [4]) it was 2.8 nM.

With `CN(C)CCC1CCN(c2cc(Nc3ccnc(-c4cnn(S(=O)(=O)C5CC5)c4)n3)ncc2C#Cc2cnn(C)c2)CC1` [Example 294, 2-(1-(Cyclopropylsulfonyl)-1H-pyrazol-4-yl)-N-(4-(4-(2-(dimethylamino)ethyl)piperidin-1-yl)-5-((1-methyl-1H-pyrazol-4-yl)ethynyl)pyridin-2-yl)pyrimidin-4-amine formate], the IC50 came to 0.2 nM at EGFR Del19/C797S (setting [5]); 0.2 nM at EGFR Del19/C797S (setting [1]); 0.3 nM on EGFR L858R/C797S (setting [6]); 1.6 nM against EGFR L858R/C797S (setting [2]); 0.1 nM on EGFR L858R/T790M/C797S (setting [7]); 0.1 nM at EGFR L858R/T790M/C797S (setting [3]). Further, the IC50 at EGFR wildtype (WT) (setting [8]) was 0.6 nM; on EGFR wildtype (WT) (IC50 WT (nM), 100 μM ATP), 351 nM; at EGFR Del19/T790M/C797S (setting [9]), 0.1 nM; against EGFR Del19/T790M/C797S (setting [4]), 0.1 nM.
